In data set [1] the target is T1, cyclin-dependent kinase 9 (CDK9) (Homo sapiens, UniProt P50750).
T1 construct: purchased Invitrogen
Briefly: Kinase panel (Invitrogen) at 1 μM, CDK9. Type of data set: biochemical.

Data set [2] relates to PI3Kβ. Briefly: PI3Kβ selectivity. It counts as biochemical.
In data set [3] the test system is PI3Kδ. Briefly: PI3Kδ selectivity. It counts as biochemical.
Data set [4] concerns PI3Kγ. The data set can be described thus: PI3Kγ selectivity. It counts as biochemical.
Data set [5] deals with interleukin-1 receptor-associated kinase 4 (IRAK1). The data set can be described thus: Kinase panel (Invitrogen) at 1 μM, IRAK1. Type of data set: biochemical.
Data set [6] concerns panel of 298 kinases. The data set can be described thus: Panel of 298 kinases (Invitrogen). Type of data set: biochemical. Conditions: 298 kinases tested at 1 μM.
The target in data set [7] is human ether-a-go-go (hERG) (Homo sapiens, UniProt Q12809). Briefly: hERG patch clamp. Type of data set: cell-based. In general terms: hERG is a cardiac potassium channel; its block is linked to QT prolongation.
human ether-a-go-go (hERG), sequence (Q12809 whole entry): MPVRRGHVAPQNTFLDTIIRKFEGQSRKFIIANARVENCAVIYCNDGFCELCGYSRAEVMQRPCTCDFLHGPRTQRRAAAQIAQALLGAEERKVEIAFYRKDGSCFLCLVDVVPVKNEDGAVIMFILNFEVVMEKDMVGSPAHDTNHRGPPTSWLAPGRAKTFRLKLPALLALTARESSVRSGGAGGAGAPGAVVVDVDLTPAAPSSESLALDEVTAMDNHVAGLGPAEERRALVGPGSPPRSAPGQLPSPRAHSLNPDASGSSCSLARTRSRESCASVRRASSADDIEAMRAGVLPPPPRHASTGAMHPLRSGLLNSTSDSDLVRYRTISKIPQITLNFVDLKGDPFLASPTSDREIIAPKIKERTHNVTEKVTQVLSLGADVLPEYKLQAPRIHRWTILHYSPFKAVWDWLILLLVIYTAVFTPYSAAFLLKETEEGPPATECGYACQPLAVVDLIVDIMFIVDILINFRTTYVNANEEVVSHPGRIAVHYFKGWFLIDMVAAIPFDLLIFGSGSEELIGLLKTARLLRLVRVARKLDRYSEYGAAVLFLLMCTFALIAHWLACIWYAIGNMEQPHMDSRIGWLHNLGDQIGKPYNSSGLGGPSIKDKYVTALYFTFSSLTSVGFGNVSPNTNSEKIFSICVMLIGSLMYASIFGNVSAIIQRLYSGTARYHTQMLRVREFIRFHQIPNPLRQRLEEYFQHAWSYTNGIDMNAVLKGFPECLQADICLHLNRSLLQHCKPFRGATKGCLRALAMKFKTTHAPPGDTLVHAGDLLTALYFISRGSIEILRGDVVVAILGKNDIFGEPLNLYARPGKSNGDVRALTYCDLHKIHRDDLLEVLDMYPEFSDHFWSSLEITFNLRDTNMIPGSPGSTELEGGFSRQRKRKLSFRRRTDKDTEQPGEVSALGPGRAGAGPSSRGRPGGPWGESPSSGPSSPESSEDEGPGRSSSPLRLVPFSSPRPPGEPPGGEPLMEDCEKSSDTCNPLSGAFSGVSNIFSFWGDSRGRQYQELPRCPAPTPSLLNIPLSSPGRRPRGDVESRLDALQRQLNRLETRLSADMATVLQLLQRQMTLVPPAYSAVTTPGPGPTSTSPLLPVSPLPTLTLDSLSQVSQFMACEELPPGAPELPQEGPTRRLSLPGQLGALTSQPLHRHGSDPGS
In data set [8] the target is T2, DNA-PK (Homo sapiens, UniProt P78527).
T2 construct: purchased Invitrogen
The data set can be described thus: DNA-PK inhibition (Invitrogen). Type of data set: biochemical.

A short description of data set [9]: Human liver microsome intrinsic clearance. Type of data set: in vitro ADME. In general terms: Liver microsomes are a subcellular fraction often used to study metabolism.
The nature of data set [10]: Ames test with and without S9. The following applies: with and without S9 activation. Type of data set: cell-based. On the technique in general: The Ames test uses bacterial strains that need an amino acid and regain growth without it when mutated back.
Data set [11] deals with pAKT-S473 in PC-3 cells (TORC2). The data set can be described thus: Cellular p-AKT (ser473) AlphaScreen assay in PC-3 cells (TORC2 activity). Type of data set: cell-based, human. Conditions: for IC50: read-out: pAKT S473 Cell IC50. The protocol:
The target product profile for 1 and the next-generation analogs described here was for a dual inhibitor against both TORC1 and TORC2.
(§1) FRAP1 (mTOR) recombinant protein and GFP-4E-BP1 were purchased from Invitrogen (Carlsbad, CA, US).
(§2) The kinase activity assay was conducted in 50 mM Hepes buffer containing 10 mM MgCl2, 0.01% Brij, 0.2 mM EDTA, 2 mM DTT and 1% DMSO (after compound addition) at pH 7.3.
(§3) The IC50 value for each compound was determined in the presence of compound (various concentrations, from 0 to 10 μM) and a fixed amount of ATP (50 μM, final concentration), substrate GFP-4E-BP1 (400 nM, final concentration). The enzymatic reaction was initiated by adding FRAP1 (mTOR) (2 nM, final concentration). The assay was conducted at room temperature (~22 °C). After 30 min, the enzymatic reaction was stopped using Tb-anti-p4E-BP1 (2 nM final concentration, Invitrogen) and EDTA (20 mM final concentration, Sigma) in TR-FRET dilution buffer provided by Invitrogen. All the reagents were dispensed using a Multidrop Combi reagent dispenser (ThermoFisher Scientific, Waltham, […]
The release of product was detected using a BMG PHERAstar plate reader (BMG LABTECH, Ortenberg, Germany) and the Lantha Screen module (337 nm excitation wavelength) and measuring the ratio of fluorescence 520/490 nm (emission wavelengths). Experimental data was fitted using Eq. (1):
Vi and Vo are the rates of the enzyme activity in the presence and in the absence of inhibitor; n is the Hill coefficient; I is the free inhibitor concentration; IC 50 is a measure of potency that is equivalent to a […]
Cellular p-AKT (ser473) assay in PC-3 cells
PC-3 cells (PTEN deleted, human prostate cell line) were maintained in F12K media with 10% heat-inactivated fetal bovine serum (FBS) in 37 °C, 5% CO2 incubator. This method describes the procedure […]
from Perkin Elmer (catalog# TGRAS500). On day 1, 50,000 PC-3 cells were plated in 160 µL complete […]
Plates were placed in 37 °C, 5%
CO2 incubator for 24 h. On day 2, all media was removed and replaced with 160 µL starvation media which is F12K media (no FBS) and 0.1% BSA. Plates are placed in 37 °C, 5% CO2 incubator for 16 h. On day 3, compounds were both solubilized and serially diluted in DMSO and added to a secondary plate containing starvation media. 40 µL of compound/starvation media were added to the 160 µL in cell plate and plates were placed back in the incubator for 1 h. Cells were then activated by adding 22 µL FBS (for a final concentration of 10% FBS) for 10 min in the incubator. Media was removed from the well and cells were lysed in 100 µL SureFire kit lysis buffer and then shake n for 15 min at 900 rpm. AlphaScreen […]
assay was performed according to manufacturer’s instructions. 4 µL of lysate was added to PerkinElmer 96-well Proxiplate then 5 µL of Reaction Buffer plus Activation Buffer. Plates were shaken for 2 h at room temperature. 2 µL of Donor Beads in Dilution Buffer were added to the plate and the plate was shaken for 2 h at room temperature. The plate was read using BMG Labtech PHERAstar using AlphaScreen settings. Each analog was run in duplicate wells and a single IC50 value was calculated in […]

Data set [12] concerns mouse xenograft models. The data set can be described thus: Mouse xenograft models (earlier efficacy of lead 1). Type of data set: in vivo. The following applies: 10 and 30 mpk.
The target in data set [13] is T3, FRAP1 (mTOR) recombinant protein (Homo sapiens, UniProt P42345).
T3 construct: purchased Invitrogen (Carlsbad, CA, US)
T3 sequence (P42345 1360-2549 limits assumed): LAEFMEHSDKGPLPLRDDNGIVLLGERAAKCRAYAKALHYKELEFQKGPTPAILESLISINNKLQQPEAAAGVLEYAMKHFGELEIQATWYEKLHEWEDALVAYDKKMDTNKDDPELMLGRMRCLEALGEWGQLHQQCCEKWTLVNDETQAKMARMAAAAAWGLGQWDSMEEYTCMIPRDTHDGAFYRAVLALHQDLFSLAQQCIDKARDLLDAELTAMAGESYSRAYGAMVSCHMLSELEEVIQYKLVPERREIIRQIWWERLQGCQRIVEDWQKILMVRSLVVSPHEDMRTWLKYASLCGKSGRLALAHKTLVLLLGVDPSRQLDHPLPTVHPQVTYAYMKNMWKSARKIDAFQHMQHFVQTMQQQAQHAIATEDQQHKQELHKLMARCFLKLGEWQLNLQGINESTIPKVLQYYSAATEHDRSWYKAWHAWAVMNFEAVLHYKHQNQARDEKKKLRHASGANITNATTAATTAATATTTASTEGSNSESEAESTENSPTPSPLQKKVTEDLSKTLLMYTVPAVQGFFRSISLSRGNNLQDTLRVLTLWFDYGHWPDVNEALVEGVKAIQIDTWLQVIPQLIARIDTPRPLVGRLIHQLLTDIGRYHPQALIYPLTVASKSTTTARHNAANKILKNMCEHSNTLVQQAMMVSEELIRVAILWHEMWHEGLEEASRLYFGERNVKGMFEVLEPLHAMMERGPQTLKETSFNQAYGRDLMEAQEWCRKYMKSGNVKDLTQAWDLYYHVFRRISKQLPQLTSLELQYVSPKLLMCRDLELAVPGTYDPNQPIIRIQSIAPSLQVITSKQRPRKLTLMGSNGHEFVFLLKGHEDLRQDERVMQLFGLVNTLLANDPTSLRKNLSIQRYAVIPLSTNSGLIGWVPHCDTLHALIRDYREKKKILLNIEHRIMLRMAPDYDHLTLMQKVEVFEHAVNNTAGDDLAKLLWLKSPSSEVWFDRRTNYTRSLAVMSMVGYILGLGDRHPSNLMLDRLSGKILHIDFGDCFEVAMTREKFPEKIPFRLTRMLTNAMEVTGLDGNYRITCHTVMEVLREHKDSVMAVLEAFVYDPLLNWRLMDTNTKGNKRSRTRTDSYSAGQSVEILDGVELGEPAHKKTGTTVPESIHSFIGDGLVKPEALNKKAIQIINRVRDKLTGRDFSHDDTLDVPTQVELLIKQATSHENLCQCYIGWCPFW
Briefly: mTOR kinase inhibition assay (TR-FRET, GFP-4E-BP1). It counts as biochemical. Conditions: enzyme. Here is the method: as §1, §2, §3
The release of product was detected using a BMG PHERAstar plate reader (BMG LABTECH, Ortenberg, Germany) and the Lantha Screen module (337 nm excitation wavelength) and measuring the ratio of fluorescence 520/490 nm (emission wavelengths). Experimental data was fitted using Eq. (1): […]

Where [14] appears, read: Homo sapiens, PC-3, PC-3 cell line.
[15] abbreviates: Homo sapiens, p-AKT S473, PC-3 cells, mean of N runs, read-out: Cell pEC50 (converted).

Like-named read-outs stand apart in the source and are kept apart here. Where only a bound is given, the exact number is not on record here.

As usually defined, the inhibition is the drop in the measured response relative to a control, in per cent. A lower inhibition goes with a weak effect. In general, IC50 refers to the midpoint of a concentration-inhibition curve.

T1 sequence (P50750 whole entry): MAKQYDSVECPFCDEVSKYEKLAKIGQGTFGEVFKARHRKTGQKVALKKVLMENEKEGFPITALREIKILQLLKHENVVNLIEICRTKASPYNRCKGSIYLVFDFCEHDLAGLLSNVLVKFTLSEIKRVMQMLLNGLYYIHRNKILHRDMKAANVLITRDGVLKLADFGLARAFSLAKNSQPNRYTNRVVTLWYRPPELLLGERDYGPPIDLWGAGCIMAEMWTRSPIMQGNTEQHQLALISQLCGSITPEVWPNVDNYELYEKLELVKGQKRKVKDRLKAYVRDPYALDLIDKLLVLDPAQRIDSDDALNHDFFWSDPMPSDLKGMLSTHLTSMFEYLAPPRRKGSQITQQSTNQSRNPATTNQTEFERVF
T1 sequence (O60563 whole entry partner): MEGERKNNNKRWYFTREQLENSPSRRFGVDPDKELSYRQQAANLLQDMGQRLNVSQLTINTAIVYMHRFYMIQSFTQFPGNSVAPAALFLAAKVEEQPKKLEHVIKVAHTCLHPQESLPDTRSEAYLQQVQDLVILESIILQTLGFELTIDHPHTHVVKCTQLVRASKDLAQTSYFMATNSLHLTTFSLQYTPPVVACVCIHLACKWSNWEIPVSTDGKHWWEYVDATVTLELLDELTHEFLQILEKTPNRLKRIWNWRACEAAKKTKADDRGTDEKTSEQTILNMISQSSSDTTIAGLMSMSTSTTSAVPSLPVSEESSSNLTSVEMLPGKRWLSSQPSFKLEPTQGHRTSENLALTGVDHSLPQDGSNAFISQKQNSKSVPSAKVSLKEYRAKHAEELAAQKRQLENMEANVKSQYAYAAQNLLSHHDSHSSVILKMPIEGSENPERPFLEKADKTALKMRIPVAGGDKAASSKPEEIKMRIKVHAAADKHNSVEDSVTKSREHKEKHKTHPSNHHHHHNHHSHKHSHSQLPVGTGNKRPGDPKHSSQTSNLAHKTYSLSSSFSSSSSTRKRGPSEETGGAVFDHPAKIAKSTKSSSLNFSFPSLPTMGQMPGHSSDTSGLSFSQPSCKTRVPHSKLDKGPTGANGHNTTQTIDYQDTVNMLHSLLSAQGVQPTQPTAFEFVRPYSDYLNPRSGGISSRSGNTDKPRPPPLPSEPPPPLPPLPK

On to `C[C@@]12COCCN1c1nc(-c3cccc4[nH]ccc34)ncc1N([C@H]1CC[C@H](O)CC1)C2=O` [14c], for which the inhibition at 1 µM turned out to be 34% in [1] and 13% in data set [8]. The “Selectivity against PI3Kβ” value in data set [2] was 180 ×. The “Selectivity against PI3Kδ” value in data set [3] is listed as 6 ×. Besides, the “Selectivity against PI3Kγ” value in data set [4] is reported as 180 ×. For the same compound, the IRAK1 inhibition in data set [5] is reported as 22%. Further, in [6], the Kinase panel selectivity entry was “only two had inhibition >20%”. In addition, the figures for the IC50 in data set [7], in [11] (setting [14]) and in [11] (PC-3 cell line) were more than 40000 nM, 10 nM and 13 nM, respectively. Further, in [9] (apparent intrinsic clearance, scaled), the “HLM Clint” value is reported as 6 mL min^–1 kg^–1. For the same compound, the Ames test entry in data set [10] is “negative”. Besides, the EC50 in data set [11] (setting [15]) was 12.6 nM.

`CC(F)(F)CN1C(=O)[C@]2(C)COCCN2c2nc(-c3ccc(NC(=O)NC4CC4)cc3)ncc21` [compound 1]: the CLint scaled in data set [9] (human, liver microsomes, Figure 1 profile, read-out: HLM Clint) was determined as 10 mL/min/kg. The In vivo efficacy entry in [12] was “significant in vivo efficacy”. In addition, the figures for the IC50 in data set [13] and in data set [11] (setting [14]) were 12 nM and 70 nM, respectively. The EC50 is 70 nM in [11] (Homo sapiens, PC-3, Figure 1 profile, read-out: cell EC50) and 70.8 nM in data set [11] (setting [15]).

(Values after article PMC10641921, “Optimization of mTOR Inhibitors Using Property-Based Drug Design and Free–Wilson Analysis for Improved In Vivo Efficacy” (ACS Medicinal Chemistry Letters, 2023).)
